Test results published in paper PMC8282797, “Strictly regulated agonist-dependent activation of AMPA-R is the key characteristic of TAK-653 for robust synaptic responses and cognitive improvement” (Scientific Reports, 2021).
Entries after “also recorded” stand apart in the source; their conditions may differ. Where two headings read alike, the source gives them in different places.

What was measured:
[1] = tested on: AMPA-R; set-up: key to Single effect on Ca2+ level: -: No effect or slight effect; +: Potent; ++: Very potent; details: cited from earlier work; for Intracellular Ca2+ level, Agonistic effect @30 μM: absence of AMPA, % of 5 μM AMPA + 10 μM HBT1 response; for EC50: in the presence of 5 μM AMPA, read-out: Intracellular Ca2+ level, Potentiation EC50; for Single effect on Ca2+ level: summary grade
[2] = tested on: rats; set-up: method as in PMID 30209408; details: 10 and 30 mg/kg, p.o.; cited from earlier work
[3] = tested on: rats; details: cited from earlier work
[4] = tested on: AMPA-R; assay: Whole-cell patch clamp recording in acute PFC slices (AMPA-R-mediated EPSPs); type: cell-based, rat; set-up: key to Synaptic EPSP response: -: No effect or slight effect; +: Potent; ++: Very potent; details: for Synaptic EPSP response: summary grade
Method: Coronal PFC slices were prepared from male Sprague–Dawley rats (10- to 14-day-old). The slices including layer V PFC pyramidal neurons were perfused at a flow rate of 1–2 ml/min with recording aCSF containing the following: 124 mM NaCl, 5 mM KCl, 1.2 mM NaH2PO4, 1.5 mM MgCl2, 2.5 mM CaCl2, 10 mM glucose, 24 mM NaHCO3 bubbled with carbogen (95% O2; 5% CO2). Current clamp recordings at holding potential of approximately − 65 mV with constant current were carried out at 32–33 °C using a pipette filled with an intracellular solution consisting of: 140 mM K-gluconate, 4 mM KCl, 10 mM HEPES, 0.2 mM EGTA, 4 mM MgATP, 0.3 mM Na2GTP, pH 7.3 with KOH in the presence of bicuculline (20 μM), CGP52422 (10 μM), and APV (50 μM) to block GABAA and B and NMDA receptors, respectively. Methods are described in the Supplementary Information.
Coronal prefrontal cortex (PFC) slices were prepared from male Sprague-Dawley rats (10- to 14-day-old). Animals were sacrificed following acute decapitation, and their brain was quickly removed and placed in an ice-cold modified artificial cerebrospinal fluid (aCSF) of the following composition: 92 mM N-methyl-D-glucamine (NMDG), 2.5 mM KCl, 1.25 mM NaH2PO4, 30 mM NaHCO3, 20 mM HEPES, 25 mM glucose, 2 mM thiourea, 5 mM Na-ascorbate, 3 mM Na-pyruvate, 0.5 mM CaCl2, and 10 mM MgSO4. The pH of the solution was titrated to 7.3-7.4 with concentrated HCl. Coronal slices were cut at a thickness of 300 μm with using a linear slicer PRO7 (Dosaka EM, Kyoto, Japan). Slices were initially recovered for ≤ 15 min at 34°C and then transferred to a holding chamber containing HEPES holding aCSF (92 mM NaCl, 2.5 mM KCl, 1.25 mM NaH2PO4, 30 mM NaHCO3, 20 mM HEPES, 25 mM glucose, 2 mM thiourea, 5 mM Na-ascorbate, 3 mM Na-pyruvate, 2 mM CaCl2 and 2 mM MgSO4) at room temperature for at least 1 h before starting the recording. The slices were then transferred to the recording chamber mounted on a FN1 microscope (Nikon, Tokyo, Japan), in which they were submerged and perfused at a flow rate of 1-2 ml/min with recording aCSF containing the following: 124 mM NaCl, 5 mM KCl, 1.2 mM NaH2PO4, 1.5 mM MgCl2, 2.5 mM CaCl2, 10 mM glucose, 24 mM NaHCO3. All aCSF solutions were continuously bubbled with carbogen (95% O2; 5% CO2). Differential interference contrast (DIC) microscopy (C10639, Hamamatsu, Japan) was used to visualize pyramidal neurons in the PFC. Patch pipettes (5-6 MΩ) were prepared from borosilicate capillary glass using a micropipette puller PC-10 (NARISHIGE, Tokyo, Japan). Current clamp recordings were carried out at 32-33°C using a pipette filled with intracellular solution consisting of: 140 mM K-gluconate, 4 mM KCl, 10 mM HEPES, 0.2 mM EGTA, 4 mM MgATP, 0.3 mM Na2GTP, pH 7.3 with KOH in the presence of bicuculline (20 μM), CGP52422 (10 μM), and APV (50 μM) to block GABAA and B and NMDA receptors, respectively. Signals were recorded using a Multiclamp 700B amplifier (Molecular Devices, LLC, Orleans Drive Sunnyvale, CA), digitized using a Digidata 1440A interface board, filtered between 2 kHz, sampled at 10 kHz, and analyzed with pClamp10 software. Layer V PFC pyramidal neurons were recorded at holding potential of approximately –65 mV with constant current. A hyperpolarizing step (–20 pA) prior to each stimulation was used to monitor any changes in access resistance. Postsynaptic potentials were evoked by constant current single stimulation pulses (100 μs, 10-100 μA) delivered with a 20-s interstimulus interval using monopolar stimulating electrodes positioned in layer I.

[5] = target: GluA2o LBD (Homo sapiens, UniProt P42262); set-up: method as in earlier work; details: read-out: IC50, binding affinity to the GluA2o LBD by SPA using [3H]-HBT1; cited from earlier work
Sequence of GluA2o LBD (P42262 with tags, fused parts or gaps): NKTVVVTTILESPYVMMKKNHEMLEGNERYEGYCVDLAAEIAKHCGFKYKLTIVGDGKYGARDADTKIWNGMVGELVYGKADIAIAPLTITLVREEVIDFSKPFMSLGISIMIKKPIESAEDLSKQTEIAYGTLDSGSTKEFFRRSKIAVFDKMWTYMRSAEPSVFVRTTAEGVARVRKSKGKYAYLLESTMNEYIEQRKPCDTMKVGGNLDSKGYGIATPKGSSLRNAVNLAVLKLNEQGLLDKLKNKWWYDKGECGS

[6] = tested on: naïve rats; details: cited from earlier work; for NORT (effective doses): summary
[7] = tested on: AMPA-R; set-up: key to Single effect on AMPA-R currents: -: No effect or slight effect; +: Potent; ++: Very potent; details: cited from earlier work; for AMPA-R currents, Agonistic effect @30 μM: absence of AMPA, % of AMPA (100 μM)-induced steady-state response; for EC50: in the presence of 1 μM AMPA, read-out: AMPA-R currents, Potentiation EC50; for Single effect on AMPA-R currents: summary grade
[8] = tested on: MK-801-induced working memory deficit in rats; assay: Radial arm maze (RAM) test, MK-801-induced working memory deficit; type: in vivo, rat
Method: RAM tests were performed using 9-week-old male Long-Evans rats as previously described with a minor modification. Each arm was 50 cm long, 10 cm wide and 40 cm high, and the maze was elevated 50 cm above the floor. Long-Evans rats were food-restricted to 85% of free-feeding body weight throughout the experimental period. Rats were well trained to collect pellets placed on the edge of each arm. The learning criterion for the testing session was defined as 2 errors or fewer for 2 consecutive days. In the testing session, each rat was placed on the maze facing the fixed arm at the start of the trial. The entry of rats into each arm was recorded in sequence until all pellets in the 8 arms were consumed, or 5 min had elapsed. […] Thirty min after dosing of vehicle or MK-801, rats were placed on the maze. Details are described in the Supplementary Information.
The experiment was performed using 9-week-old male Long-Evans rats as described previously (Zajaczkowski et al., 1996) with a minor modification. Each arm was 50 cm long, 10 cm wide and 40 cm high, and the maze was elevated 50 cm above the floor. After being fasted for 24 h, male Long-Evans rats were food-restricted to 85% of free-feeding body weight on the first day of exposure to the maze and throughout the experimental period. The experiment consists of two sessions, training and testing session. In the training session, rats were habituated to the maze and then trained. Reinforcement consisted of 3 food pellets (45 mg each) in the food cup was used. On the first day of habituation to the maze, reinforcements were placed near the entrance and at the mid-point of each arm. Three rats were placed on the maze at one time and allowed to explore and consume the pellets for 8 min. On the second day of habituation, each rat was placed on the maze and allowed 5 min to consume the pellets placed at the mid-point and in the food cup at the end of each arm. From the third day, reinforcement was placed in the food cup at the end of each arm. Rats were well trained to collect pellets placed on the edge of each arm. The learning criterion for the testing session was defined as 2 errors or less for two consecutive days. In the previous day of the testing session, baseline level of performance was qualified to confirm that rats completed collecting all pellets placed in the 8 arms with two errors or less. In the testing session, each rat was placed on the maze facing away from the experimenter and facing the fixed arm at the start of the trial. The entry of rats into each arm was recorded in sequence. Rats were allowed to explore until all pellets in the 8 arms were consumed, or 5 min had elapsed. Entry into an arm previously chosen was counted as an error. […] […] Thirty min after dosing of vehicle or MK-801, rats were placed on the maze. Data were indicated as the mean ± SEM in the testing session.

[9] = set-up: method as in earlier work; details: cited from earlier work
[10] = tested on: MK-801-induced working memory deficit in rats; set-up: method as in earlier work; details: summary, fasted conditions; cited from earlier work

SMILES | Intracellular Ca2+ level, Agonistic effect @30 μM [1] [%] | EC50 [1] [nM] | Single effect on Ca2+ level [1] | Margin based on AUCplasma [3] [fold] | Margin based on plasma Cmax [3] [fold] | Synaptic EPSP response [4] | IC50 [5] [nM] | NORT (effective doses) [6] | AMPA-R currents, Agonistic effect @30 μM [7] [%] | EC50 [7] [nM] | Single effect on AMPA-R currents [7] | also measured
CC(C)S(=O)(=O)NC[C@H](C)c1ccc(-c2ccc(C#N)cc2)cc1 [LY451646] | 88 | 780 | ++ | 4.0 | 3.4 | + | 390 | Effective (1, 3) | 39 | 1900 | + | Seizure [2]: induced seizure; Membrane potentials of recorded neurons [4]: did not increase; Suprathreshold response ([4]; 30 μM for 10 min): enhanced the suprathreshold response; Suprathreshold polysynaptic EPSPs (number of spikes, EPSP duration) ([4]; 0.3 to 30 μM): moderate potentiation; Dose improving visual learning and memory in NOR test ([6]; p.o., rats): ≥ 1 mg/kg; Working memory in the RAM test ([8]; 0.03 to 1 mg/kg, p.o., MK-801 0.08 mg/kg, s.c.): neither LY451646 at 0.03 to 1 mg/kg, p.o. nor AMPA at 0.1 to 3 mg/kg, i.p. improve; RAM (effective doses) ([8]; summary): No effect
O=S1(=O)CCN2C=CC=C(c3ccc(Oc4ccccc4)cc3)C2=N1 [TAK-137, 9-(4-phenoxyphenyl)-3,4-dihydropyrido[2,1-c][1,2,4]thiadiazine 2,2-dioxide] | 7.6 | 420 | ─ | 122 | 42 | ++ | 65 | Effective (0.1, 1) | 6.4 | 1400 | ─ | Brain concentration under fasted conditions, relative to fed conditions [9]: 71%; Plasma concentration under fasted conditions, relative to fed conditions [9]: 67%; Polysynaptic EPSP duration and evoked spikes ([4]; 3 μM, 10 min): potently enhanced; also recorded: robustly enhanced; RAM (effective doses) [10]: Effective (0.2, 0.6) ^\
